Assay results reported in patent US8598114B2, “Antimicrobial compounds” (priority 2007, dated 2013).
Where “and” joins values, the source holds several entries; their conditions need not be identical. Equal values may be shown once.

Columns and labels:
Eggerthella lenta = assay: MIC, CLSI microbroth dilution (anaerobic bacteria); assay type: cell-based; design: unit not given here; details: Eggerthella lenta - ATCC 43055, SBB (Table 2)
Pseudomonas aeruginosa = assay: MIC, CLSI microbroth dilution (aerobic bacteria); assay type: cell-based; design: unit not given beside the values
From the text: (§1) Cation-adjusted Mueller-Hinton broth (Oxoid Ltd., Basingstoke, UK and Trek Diagnostic Systems Ltd., East Grinstead, UK) (supplemented with 5% laked horse blood for Streptococcus spp., Corynebacterium jeikeium and Listeria monocytogenes) was used for aerobic bacteria, with an initial inoculum of approximately 10^5 colony-forming units (CFU)/mL.
(§2) To evaluate whether freezing affected the activity of the peptides some MIC determinations were repeated using plates containing freshly-prepared Mueller-Hinton broth.

Escherichia coli = assay: MIC, CLSI microbroth dilution (aerobic bacteria); assay type: cell-based; design: unit not given beside the values
From the text: as §1, §2

Enterococcus faecalis = assay: MIC, CLSI microbroth dilution (aerobic bacteria); assay type: cell-based; design: unit not given beside the values
From the text: as §1, §2

Enterococcus gallinarum = assay: MIC, CLSI microbroth dilution (aerobic bacteria); assay type: cell-based; details: Enterococcus gallinarum vancomycin-resistant (VanC) clinical isolate
From the text: as §1

Enterococcus faecium = assay: MIC, CLSI microbroth dilution (aerobic bacteria); assay type: cell-based
From the text: as §1

Acinetobacter baumanii = assay: MIC, CLSI microbroth dilution (aerobic bacteria); assay type: cell-based; details: Acinetobacter baumanii - antibiotic-susceptible clinical isolate
From the text: as §1

Corynebacterium jeikeium = assay: MIC, CLSI microbroth dilution (aerobic bacteria); assay type: cell-based
From the text: as §1

[1] = tested on: Staphylococcus haemolyticus; assay: MIC, CLSI microbroth dilution (aerobic bacteria); assay type: cell-based; details: Staphylococcus haemolyticus - antibiotic susceptible clinical isolate
From the text: as §1

trypsin = assay: in vitro; assay type: in vitro ADME; details: pH 8.6
Experimental: Measurements and Calculation of Peptide Half-Life
Each peptide was dissolved in a 0.1 M NH4HCO3 buffer (pH 6.5) to yield a final peptide concentration of 1 mg/ml. A trypsin solution was prepared by dissolving 1 mg of trypsin in 50 ml 0.1 M NH4HCO3 buffer (pH 8.2). For the stability determination, 250 μl freshly made trypsin solution and 250 μl peptide solution were incubated in 2 ml of 0.1 M NH4HCO3 buffer (pH 8.6) at 37° C. on a rocking table. Aliquots of 0.5 ml were sampled at different time intervals, diluted with 0.5 ml water:acetonitrile (60:40 v/v) containing 1% TFA and analysed by RP-HPLC as described above. Samples without trypsin addition taken at 0 h and after 20 h at 37° C. were used as negative controls. Integration of the peak area at 254 nm for samples taken during the first 5 hours of the assay was used to generate the τ1/2.

Clostridium difficile = assay: MIC, CLSI microbroth dilution (anaerobic bacteria); assay type: cell-based; details: Clostridium difficile - antibiotic-susceptible clinical isolate
Experimental: M11-A6 Vol. 24 No. 2 Methods for Antimicrobial Susceptibility Testing of Anaerobic Bacteria; Approved Standard-Sixth Edition.
Supplemented Brucella broth (SBB) was used for the anaerobic strains with an inoculum of approximately 10^6 CFU/mL. SBB is a broth consisting of 1% peptone, 0.5% ‘Lab-lemco’, 1% glucose and 0.5% sodium chloride supplemented with 5 […] vitamin K (both obtained from Sigma Aldrich Ltd.)

Staphylococcus aureus = assay: MIC, CLSI microbroth dilution (aerobic bacteria); assay type: cell-based; design: unit not given here
From the text: as §1, §2

Candida parapsilosis = assay: MIC, CLSI microbroth dilution (yeasts); assay type: cell-based; design: unit not given beside the values
Experimental: (§3) M27-A2 Vol. 22 No. 15 Reference Method for Broth Dilution Antifungal Susceptibility Testing of Yeasts; Approved Standard-Second Edition.
(§4) Yeast and filamentous fungal MIC were performed in MOPS buffered RPMI 1640 medium (MOPS buffer obtained from Sigma Aldrich Ltd., RPMI 1640 obtained from Invitrogen Ltd, Paisley, Scotland). The yeast inocula were in the range 7.5×10^2-4×10^3 CFU/mL and the filamentous fungi approximately 8×10^3-1×10^5CFU/mL

[2] = tested on: Candida (Issatchenkia) krusei; assay: MIC, CLSI microbroth dilution (yeasts); assay type: cell-based; design: unit not given beside the values
Experimental: as §3, §4

Candida tropicalis = assay: MIC, CLSI microbroth dilution (yeasts); assay type: cell-based; design: unit not given beside the values; details: Candida tropicalis ATCC750 - reference strain
Experimental: as §3, §4

Cryptococcus neoformans = assay: MIC, CLSI microbroth dilution (yeasts); assay type: cell-based; design: unit not given beside the values; details: Cryptococcus neoformans - G.R. Micro collection
Experimental: as §3, §4

Candida albicans = assay: MIC, CLSI microbroth dilution (yeasts); assay type: cell-based; design: unit not given beside the values
Experimental: as §3, §4

[3] = tested on: Trichophyton mentagrophytes; assay: MIC, CLSI microbroth dilution (filamentous fungi); assay type: cell-based; design: unit not given beside the values; details: Trichophyton mentagrophytes - G.R. Micro collection
Experimental: M38-A Vol. 22 No. 16 Reference Method for Broth Dilution Antifungal Susceptibility Testing of Filamentous Fungi; Approved Standard.
as §4

Haemophilus influenzae = assay: MIC, CLSI microbroth dilution (Haemophilus test medium)

**Q.** How did the MIC (Eggerthella lenta) turn out when `N=C(N)NCCCC(N)C(=O)NC(Cc1ccc(-c2ccc3ccccc3c2)cc1)C(=O)NC(CCCNC(=N)N)C(=O)NCCc1ccccc1` (centres unmarked) [Compound 1] was run?
**A.** The MIC was 16.

**Q.** What about the MIC (Pseudomonas aeruginosa; GN10 Pseudomonas aeruginosa ATCC 27853 type strain, repeat results (Table 2), Fresh MHB) of the same compound?
**A.** The MIC was 8.

**Q.** What about the MIC (Pseudomonas aeruginosa; GN10 Pseudomonas aeruginosa ATCC 27853 type strain, repeat results (Table 2), Frozen MHB) of the same compound?
**A.** Its MIC is 16 and 32.

**Q.** What about the MIC (Pseudomonas aeruginosa; Pseudomonas aeruginosa - multi-drug resistant clinical isolate) of the same compound?
**A.** The MIC was 32.

**Q.** What about the MIC (Pseudomonas aeruginosa; Pseudomonas aeruginosa ATCC27853 - antibiotic-susceptible type) of the same compound?
**A.** The MIC was 16.

**Q.** What about the MIC (Escherichia coli; Escherichia coli - multi-drug resistant clinical isolate) of the same compound?
**A.** The MIC was 32.

**Q.** And the MIC (Escherichia coli; Escherichia coli ATCC25922 - antibiotic-susceptible type strain)?
**A.** The MIC was 32.

**Q.** What about the MIC (Escherichia coli; Escherichia coli ATCC32518 - β-lactamase positive type strain) of the same compound?
**A.** Its MIC is 32.

**Q.** What about the MIC (Escherichia coli; GN01 Escherichia coli ATCC 25922 type strain, repeat results (Table 2), Fresh MHB) of the same compound?
**A.** The MIC was 16.

**Q.** What about the MIC (Escherichia coli; GN01 Escherichia coli ATCC 25922 type strain, repeat results (Table 2), Frozen MHB) of the same compound?
**A.** Its MIC is 32.

**Q.** What about the MIC (Enterococcus faecalis; Enterococcus faecalis - ATCC 29212 antibiotic-susceptible control (Table 1)) of the same compound?
**A.** Its MIC is 4.

**Q.** What about the MIC (Enterococcus faecalis; Enterococcus faecalis high-level gentamicin-resistant clinical isolate) of the same compound?
**A.** Its MIC is 16.

**Q.** And the MIC (Enterococcus faecalis; Enterococcus faecalis vancomycin-resistant (VanA) clinical isolate)?
**A.** The MIC was 16.

**Q.** And the MIC (Enterococcus faecalis; Enterococcus faecalis vancomycin-resistant (VanB) clinical isolate)?
**A.** Its MIC is 16.

**Q.** What about the MIC (Enterococcus faecalis; Enterococcus faecalis vancomycin-susceptible clinical isolate) of the same compound?
**A.** The MIC was 8.

**Q.** And the MIC (Enterococcus faecalis; GP11 Enterococcus faecalis - ATCC 29212 control strain, repeat results (Table 2), Fresh MHB)?
**A.** Its MIC is 4.

**Q.** What about the MIC (Enterococcus faecalis; GP11 Enterococcus faecalis - ATCC 29212 control strain, repeat results (Table 2), Frozen MHB) of the same compound?
**A.** The MIC was 8.

**Q.** What about the MIC (Enterococcus gallinarum) of the same compound?
**A.** The MIC was 4.

**Q.** What about the MIC (Enterococcus faecium; Enterococcus faecium vancomycin-resistant (VanA) clinical isolate) of the same compound?
**A.** The MIC was 16.

**Q.** And the MIC (Enterococcus faecium; Enterococcus faecium vancomycin-resistant (VanB) clinical isolate)?
**A.** The MIC was 8.

**Q.** And the MIC (Enterococcus faecium; Enterococcus faecium vancomycin-susceptible clinical isolate)?
**A.** Its MIC is 8.

**Q.** What about the MIC (Acinetobacter baumanii) of the same compound?
**A.** The MIC was 64.

**Q.** And the MIC (Corynebacterium jeikeium; Corynebacterium jeikeium - antibiotic-susceptible clinical isolate)?
**A.** The MIC was 32.

**Q.** What about the MIC (Corynebacterium jeikeium; Corynebacterium jeikeium - multi-drug resistant clinical isolate) of the same compound?
**A.** The MIC was 32.

**Q.** What about the MIC [1] of the same compound?
**A.** Its MIC is 4.

**Q.** What about the half-life at 0.1 mg/ml (trypsin) of the same compound?
**A.** Its half-life at 0.1 mg/ml is > 24 h.

**Q.** What about the MIC (Clostridium difficile) of the same compound?
**A.** The MIC was 32.

**Q.** What about the MIC (Staphylococcus aureus; EMRSA1 Staphylococcus aureus (MRSA) - SSCmec type 3) of the same compound?
**A.** The MIC was 8.

**Q.** What about the MIC (Staphylococcus aureus; EMRSA3 Staphylococcus aureus (MRSA) - SSCmec type 1) of the same compound?
**A.** Its MIC is 4.

**Q.** And the MIC (Staphylococcus aureus; EMRSA15 Staphylococcus aureus (MRSA) - SSCmec type 4)?
**A.** Its MIC is 4.

**Q.** What about the MIC (Staphylococcus aureus; EMRSA16 Staphylococcus aureus (MRSA) - SSCmec type 2) of the same compound?
**A.** Its MIC is 4.

**Q.** And the MIC (Staphylococcus aureus; GP01 Staphylococcus aureus ATCC 29213 control strain, repeat results (Table 2), Fresh MHB)?
**A.** Its MIC is 4.

**Q.** And the MIC (Staphylococcus aureus; GP01 Staphylococcus aureus ATCC 29213 control strain, repeat results (Table 2), Frozen MHB)?
**A.** Its MIC is 8 and 4.

**Q.** And the MIC (Staphylococcus aureus; HT2001254 Staphylococcus aureus (MRSA) - PVL positive)?
**A.** Its MIC is 4.

**Q.** What about the MIC (Staphylococcus aureus; MU50 Staphylococcus aureus (MRSA) - VISA type strain) of the same compound?
**A.** The MIC was 4.

**Q.** What about the MIC (Staphylococcus aureus; Staphylococcus aureus - methicillin-resistant clinical isolate) of the same compound?
**A.** Its MIC is 4.

**Q.** And the MIC (Staphylococcus aureus; Staphylococcus aureus - multi-drug-resistant clinical isolate)?
**A.** The MIC was 8.

**Q.** What about the MIC (Staphylococcus aureus; Staphylococcus aureus - teicoplanin-intermediate clinical isolate) of the same compound?
**A.** The MIC was 4.

**Q.** And the MIC (Staphylococcus aureus; Staphylococcus aureus ATCC 25923 - antibiotic-susceptible control)?
**A.** Its MIC is 4.

**Q.** And the MIC (Staphylococcus aureus; Staphylococcus aureus ATCC 29213 - antibiotic-susceptible control (Table 1))?
**A.** The MIC was 4.

**Q.** And the MIC (Staphylococcus aureus; Staphylococcus aureus ATCC 43300 - methicillin-resistant control strain)?
**A.** Its MIC is 4.

**Q.** And the MIC (Candida parapsilosis; Candida parapsilosis ATCC 22019, RPMI 1640 (Table 2))?
**A.** The MIC was 4.

**Q.** And the MIC (Candida parapsilosis; Candida parapsilosis ATCC90018 - reference strain)?
**A.** The MIC was 4.

**Q.** What about the MIC ([2]; Candida (Issatchenkia) krusei ATCC6258 - reference strain) of the same compound?
**A.** Its MIC is 4.

**Q.** And the MIC ([2]; F05 Candida (Issatchenkia) krusei ATCC 6258 reference strain, repeat results (Table 2), RPMI 1640)?
**A.** Its MIC is 8.

**Q.** And the MIC (Candida tropicalis)?
**A.** The MIC was 2.

**Q.** What about the MIC (Cryptococcus neoformans) of the same compound?
**A.** Its MIC is 4.

**Q.** What about the MIC (Candida albicans; Candida albicans ATCC24433 - reference strain) of the same compound?
**A.** The MIC was 2.

**Q.** What about the MIC (Candida albicans; Candida albicans ATCC90028 - reference strain) of the same compound?
**A.** Its MIC is 2.

**Q.** And the MIC [3]?
**A.** Its MIC is 16.

**Q.** What about the MIC (Haemophilus influenzae; Haemophilus influenzae - β-lactamase negative clinical isolate) of the same compound?
**A.** The MIC was “≧128”.

**Q.** What about the MIC (Haemophilus influenzae; Haemophilus influenzae - β-lactamase positive clinical isolate) of the same compound?
**A.** The MIC was “≧128”.

**Q.** And the MIC (Haemophilus influenzae; Haemophilus influenzae β-lactamase negative ampicillin-resistant)?
**A.** The MIC was “≧128”.
